Source: US10758534B2 (Vertex Pharmaceuticals Incorporated, priority 2014, dated 2020)

target: T1, F508del (Homo sapiens, UniProt P13569, DEL508-508); test: Protocol 2: FRET membrane potential optical assay (VIPR), identification of correction compounds; format: cell-based; details: F508del CFTR modulator activity; compounds of Table 1; read-out: EC30
T1 construct: expressed in transfected cells
Outline: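 FRET read-out (CC2-DMPE donor, DiSBAC2(3) voltage-sensitive acceptor) of membrane depolarization on VIPR II. Corrector candidates incubated 16 hrs at 37° C. with NIH3T3 cells expressing F508del; temperature correction at 27° C. as positive control; stimulation by 10 μM forskolin, 20 μM genistein, chloride-free gluconate bath.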

T1 sequence (P13569 with tags, fused parts or gaps DEL508-508): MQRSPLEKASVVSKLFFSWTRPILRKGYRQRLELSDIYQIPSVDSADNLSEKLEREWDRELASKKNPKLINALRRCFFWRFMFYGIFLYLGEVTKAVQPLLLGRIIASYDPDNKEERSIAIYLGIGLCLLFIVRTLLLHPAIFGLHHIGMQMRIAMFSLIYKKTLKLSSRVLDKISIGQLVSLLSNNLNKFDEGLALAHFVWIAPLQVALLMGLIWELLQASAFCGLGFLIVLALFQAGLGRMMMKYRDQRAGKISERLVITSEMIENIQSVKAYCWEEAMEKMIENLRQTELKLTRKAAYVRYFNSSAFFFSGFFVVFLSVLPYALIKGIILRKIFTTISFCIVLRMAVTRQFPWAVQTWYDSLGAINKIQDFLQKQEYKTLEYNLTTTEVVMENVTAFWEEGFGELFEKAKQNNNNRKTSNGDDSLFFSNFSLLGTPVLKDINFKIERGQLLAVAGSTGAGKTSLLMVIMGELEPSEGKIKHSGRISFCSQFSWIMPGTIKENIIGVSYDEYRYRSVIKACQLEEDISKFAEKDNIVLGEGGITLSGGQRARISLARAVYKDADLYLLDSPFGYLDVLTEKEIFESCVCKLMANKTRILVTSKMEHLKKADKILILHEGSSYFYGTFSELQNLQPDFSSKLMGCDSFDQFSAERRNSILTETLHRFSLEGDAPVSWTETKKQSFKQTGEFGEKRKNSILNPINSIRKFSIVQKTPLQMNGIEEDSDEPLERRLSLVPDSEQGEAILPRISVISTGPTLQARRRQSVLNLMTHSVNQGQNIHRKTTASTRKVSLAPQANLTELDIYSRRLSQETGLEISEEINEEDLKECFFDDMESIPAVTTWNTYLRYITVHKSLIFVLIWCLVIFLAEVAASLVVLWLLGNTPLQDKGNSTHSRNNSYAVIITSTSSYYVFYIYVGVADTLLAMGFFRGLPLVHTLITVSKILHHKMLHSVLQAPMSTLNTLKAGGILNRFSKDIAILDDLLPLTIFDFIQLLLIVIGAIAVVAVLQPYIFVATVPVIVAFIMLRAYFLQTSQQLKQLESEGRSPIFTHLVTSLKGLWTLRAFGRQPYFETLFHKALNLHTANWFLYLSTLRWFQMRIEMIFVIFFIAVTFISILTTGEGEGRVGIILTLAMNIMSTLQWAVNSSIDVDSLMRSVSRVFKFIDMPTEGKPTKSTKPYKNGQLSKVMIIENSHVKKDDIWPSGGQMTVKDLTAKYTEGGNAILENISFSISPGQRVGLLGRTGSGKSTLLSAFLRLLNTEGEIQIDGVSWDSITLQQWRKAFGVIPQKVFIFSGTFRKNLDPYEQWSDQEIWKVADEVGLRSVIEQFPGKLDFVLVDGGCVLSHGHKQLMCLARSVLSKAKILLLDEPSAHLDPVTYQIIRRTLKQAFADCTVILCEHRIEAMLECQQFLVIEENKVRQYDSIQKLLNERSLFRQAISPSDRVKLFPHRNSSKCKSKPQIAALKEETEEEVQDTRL

| SMILES | EC30 [µM] |
| --- | --- |
| CC1CN(c2ncc(-c3cc(OC(C)C)ccc3Cl)cc2C(=O)NS(=O)(=O)c2cccc(N)n2)C(C)(C)C1 (centres unmarked) [Compound 2210, N-[(6-amino-2-pyridyl)sulfonyl]-5-(2-chloro-5-isopropoxy-phenyl)-2-(2,2,4-trimethylpyrrolidin-1-yl)pyridine-3-carboxamide] | < 3 |
| COc1ccc(OC)c(Nc2cccc(S(=O)(=O)NC(=O)c3cccnc3N3CC(C)CC3(C)C)n2)c1 (centres unmarked) [Compound 2179, N—[[6-(2,5-dimethoxyanilino)-2-pyridyl]sulfonyl]-2-(2,2,4-trimethylpyrrolidin-1-yl)pyridine-3-carboxamide] | < 3 |
| CC1CN(c2ncccc2C(=O)NS(=O)(=O)c2cccc(N3CCN(c4ncccn4)CC3)n2)C(C)(C)C1 (centres unmarked) [Compound 2621, N—[[6-(4-pyrimidin-2-ylpiperazin-1-yl)-2-pyridyl]sulfonyl]-2-(2,2,4-trimethylpyrrolidin-1-yl)pyridine-3-carboxamide] | 3 to 10 |
| C[C@@H]1CN(c2nc(-c3cccc4ccccc34)ccc2C(=O)NS(=O)(=O)c2ccc[nH]c2=O)C(C)(C)C1 [Compound 2007, 6-(1-naphthyl)-N-[(2-oxo-1H-pyridin-3-yl)sulfonyl]-2-[(4S)-2,2,4-trimethylpyrrolidin-1-yl]pyridine-3-carboxamide] | < 3 |
| CC1CN(c2ncccc2C(=O)NS(=O)(=O)c2cccc(NCCc3cccs3)n2)C(C)(C)C1 (centres unmarked) [Compound 2146, N—[[6-[2-(2-thienyl)ethylamino]-2-pyridyl]sulfonyl]-2-(2,2,4-trimethylpyrrolidin-1-yl)pyridine-3-carboxamide] | < 3 |
| CCOc1cc(C)cc(-c2ccc(C(=O)NS(=O)(=O)c3cccc(N)n3)c(Oc3c(C)cc(C)cc3C)n2)n1 [Compound 2511, N-[(6-amino-2-pyridyl)sulfonyl]-6-(6-ethoxy-4-methyl-2-pyridyl)-2-(2,4,6-trimethylphenoxy)pyridine-3-carboxamide] | < 3 |
| CC#CCOc1cccc(S(=O)(=O)NC(=O)c2cccnc2N2CC(C)CC2(C)C)n1 (centres unmarked) [Compound 2741] | 3 to 10 |
| CC1CN(c2ncccc2C(=O)NS(=O)(=O)c2cccc(NCCCCNC(=O)OC(C)(C)C)n2)C(C)(C)C1 (centres unmarked) [Compound 2335, tert-butyl N—[4-[[6-[[2-(2,2,4-trimethylpyrrolidin-1-yl)pyridine-3-carbonyl]sulfamoyl]-2-pyridyl]amino]butyl]carbamate] | 3 to 10 |
| CC1CN(c2ncccc2C(=O)NS(=O)(=O)c2cccc(N3CCCC3c3ccccc3)n2)C(C)(C)C1 (centres unmarked) [Compound 2094, N—[[6-(2-phenylpyrrolidin-1-yl)-2-pyridyl]sulfonyl]-2-(2,2,4-trimethylpyrrolidin-1-yl)pyridine-3-carboxamide] | < 3 |
| CC1CN(c2ncccc2C(=O)NS(=O)(=O)c2cccc(OCc3ccc(-n4cccn4)cc3)n2)C(C)(C)C1 (centres unmarked) [Compound 2118, N—[[6-[(4-pyrazol-1-ylphenyl)methoxy]-2-pyridyl]sulfonyl]-2-(2,2,4-trimethylpyrrolidin-1-yl)pyridine-3-carboxamide] | < 3 |
| CC1CN(c2ncccc2C(=O)NS(=O)(=O)c2cccc(Oc3ccc4[nH]ccc4c3)n2)C(C)(C)C1 (centres unmarked) [Compound 2003, N—[[6-(1H-indol-5-yloxy)-2-pyridyl]sulfonyl]-2-(2,2,4-trimethylpyrrolidin-1-yl)pyridine-3-carboxamide] | < 3 |
| C[C@@H]1CN(c2nc(-n3ccc(C4CC4)n3)ccc2C(=O)NS(=O)(=O)c2cccnc2N)C(C)(C)C1 [Compound 2695] | < 3 |

same assay, conditions: Table 3; compounds of Table 1 as modulators of CFTR activity; protocol not stated

| SMILES | EC30 |
| --- | --- |
| CC(C)COc1cc(F)cc(-c2ccc(C(=O)NS(=O)(=O)c3cccc(N)n3)c(N3CCCC3C3CC3)n2)c1 (centres unmarked) [Compound 593, N-[(6-amino-2-pyridyl)sulfonyl]-2-(2-cyclopropylpyrrolidin-1-yl)-6-(3-fluoro-5-isobutoxy-phenyl)pyridine-3-carboxamide] | +++ (“+++” means <3 uM) |
| COc1ccnc2c1cc(C(=O)NS(=O)(=O)c1cccc(N)n1)n2Cc1c(C)cc(C)cc1C [Compound 539, N-[(6-amino-2-pyridyl)sulfonyl]-4-methoxy-1-[(2,4,6-trimethylphenyl)methyl]pyrrolo[2,3-b]pyridine-2-carboxamide] | + (“+” means greater than 10 uM) |
| Cc1cc(C)c(Cn2c(C(=O)NS(=O)(=O)c3ccccc3)cc3ccccc32)c(C)c1 [Compound 264, N-(benzenesulfonyl)-1-[(2,4,6-trimethylphenyl)methyl]indole-2-carboxamide] | +++ (“+++” means <3 uM) |
| CCOc1cccc(-c2cc(C(=O)NS(=O)(=O)c3ccccc3)n(Cc3c(C)cccc3C)n2)c1 [Compound 280, N-(benzenesulfonyl)-2-[(2,6-dimethylphenyl)methyl]-5-(3-ethoxyphenyl)pyrazole-3-carboxamide] | +++ (“+++” means <3 uM) |
| Cc1cc(C)c(Oc2nc(C(C)(C)C)ccc2C(=O)NS(=O)(=O)c2ccccc2O)c(C)c1 [Compound 131, 6-tert-butyl-N-(2-hydroxyphenyl)sulfonyl-2-(2,4,6-trimethylphenoxy)pyridine-3-carboxamide] | +++ (“+++” means <3 uM) |
| Cc1ccc(Oc2nc(C(C)(C)C)ccc2C(=O)NS(=O)(=O)c2ccc[nH]c2=O)c(C)c1 [Compound 55, 6-tert-butyl-2-(2,4-dimethylphenoxy)-N-[(2-oxo-1H-pyridin-3-yl)sulfonyl]pyridine-3-carboxamide] | ++ (“++” means between 3 uM and 10 uM) |
| Cc1cc(C)c(Oc2nc(-c3ccccc3)ccc2C(=O)NS(=O)(=O)c2ccc[nH]c2=O)c(C)c1 [Compound 654, N-[(2-oxo-1H-pyridin-3-yl)sulfonyl]-6-phenyl-2-(2,4,6-trimethylphenoxy)pyridine-3-carboxamide] | +++ (“+++” means <3 uM) |
| CC(C)COc1cc(F)cc(-c2ccc(C(=O)NS(=O)(=O)c3ccn[nH]3)c(N3CCC(F)(F)C3)n2)c1 [Compound 565, 2-(3,3-difluoropyrrolidin-1-yl)-6-(3-fluoro-5-isobutoxy-phenyl)-N-(1H-pyrazol-5-ylsulfonyl)pyridine-3-carboxamide] | + (“+” means greater than 10 uM) |
| Cc1cc(C)c(Oc2nc(-c3cc(F)cc(OCC(C)C)c3)ccc2C(=O)NS(=O)(=O)c2cc[nH]n2)c(C)c1 [Compound 318, 6-(3-fluoro-5-isobutoxy-phenyl)-N-(1H-pyrazol-3-ylsulfonyl)-2-(2,4,6-trimethylphenoxy)pyridine-3-carboxamide] | +++ (“+++” means <3 uM) |
| Cc1cc(C)c(CN2Cc3ccccc3CC2C(=O)NS(=O)(=O)c2cccc(N)c2)c(C)c1 (centres unmarked) [Compound 213, N-(3-aminophenyl)sulfonyl-2-[(2,4,6-trimethylphenyl)methyl]-3,4-dihydro-1H-isoquinoline-3-carboxamide] | +++ (“+++” means <3 uM) |
| Cc1cc(C)c(Oc2nc(-c3ccccc3)ccc2C(=O)NS(=O)(=O)c2cccc(N)c2)c(C)c1 [Compound 231, N-(3-aminophenyl)sulfonyl-6-phenyl-2-(2,4,6-trimethylphenoxy)pyridine-3-carboxamide] | +++ (“+++” means <3 uM) |
| CC(C)COc1cc(F)cc(-c2ccc(C(=O)NS(=O)(=O)c3ccn[nH]3)c(N3CCCC(c4ccccn4)C3)n2)c1 (centres unmarked) [Compound 677, 6-(3-fluoro-5-isobutoxy-phenyl)-N-(1H-pyrazol-5-ylsulfonyl)-2-[3-(2-pyridyl)-1-piperidyl]pyridine-3-carboxamide] | ++ (“++” means between 3 uM and 10 uM) |
| COc1ncccc1S(=O)(=O)NC(=O)c1cc2cc(C)ccc2n1Cc1c(C)cc(C)cc1C [Compound 267, N-[(2-methoxy-3-pyridyl)sulfonyl]-5-methyl-1-[(2,4,6-trimethylphenyl)methyl]indole-2-carboxamide] | +++ (“+++” means <3 uM) |
| Cc1cccc(C)c1Cn1nc(C(C)(C)C)cc1C(=O)NS(=O)(=O)c1cccc(N)c1 [Compound 185, N-(3-aminophenyl)sulfonyl-5-tert-butyl-2-[(2,6-dimethylphenyl)methyl]pyrazole-3-carboxamide] | +++ (“+++” means <3 uM) |
| CC(C)COc1cc(F)cc(-c2ccc(C(=O)NS(=O)(=O)c3ccn[nH]3)c(N3CCCC4(COC4)C3)n2)c1 [Compound 519, 6-(3-fluoro-5-isobutoxy-phenyl)-2-(2-oxa-8-azaspiro[3.5]nonan-8-yl)-N-(1H-pyrazol-5-ylsulfonyl)pyridine-3-carboxamide] | ++ (“++” means between 3 uM and 10 uM) |
| COc1cccc(S(=O)(=O)NC(=O)c2ccc(-c3cc(F)cc(OCC(C)C)c3)nc2N2CCC(C)(C)CC2)c1 [Compound 510, 2-(4,4-dimethyl-1-piperidyl)-6-(3-fluoro-5-isobutoxy-phenyl)-N-(3-methoxyphenyl)sulfonyl-pyridine-3-carboxamide] | +++ (“+++” means <3 uM) |
| CC(C)Oc1ccc(-c2ccc(C(=O)NS(=O)(=O)c3cccc(N)n3)c(N3CC(c4ccccc4)CC3C)n2)cn1 (centres unmarked) [Compound 502, N-[(6-amino-2-pyridyl)sulfonyl]-6-(6-isopropoxy-3-pyridyl)-2-(2-methyl-4-phenyl-pyrrolidin-1-yl)pyridine-3-carboxamide] | +++ (“+++” means <3 uM) |
| COc1ccc2c(c1)C(C)(C(=O)NS(=O)(=O)c1cccc(N)n1)N(Cc1c(C)cc(C)cc1C)C2 (centres unmarked) [Compound 474, N-[(6-amino-2-pyridyl)sulfonyl]-6-methoxy-1-methyl-2-[(2,4,6-trimethylphenyl)methyl]isoindoline-1-carboxamide] | +++ (“+++” means <3 uM) |
| COc1cccnc1S(=O)(=O)NC(=O)c1ccc(C(C)(C)C)nc1Oc1c(C)cc(C)cc1C [Compound 92, 6-tert-butyl-N-[(3-methoxy-2-pyridyl)sulfonyl]-2-(2,4,6-trimethylphenoxy)pyridine-3-carboxamide] | +++ (“+++” means <3 uM) |
| CC(C)Oc1ccc(-c2ccc(C(=O)NS(=O)(=O)c3cccc(N)n3)c(N3CCCC(c4ccccn4)C3)n2)cn1 (centres unmarked) [Compound 489, N-[(6-amino-2-pyridyl)sulfonyl]-6-(6-isopropoxy-3-pyridyl)-2-[3-(2-pyridyl)-1-piperidyl]pyridine-3-carboxamide] | +++ (“+++” means <3 uM) |
